# Laboratory results published in publication PMC4605843, “Cell-Penetrating Peptides Selectively Cross the Blood-Brain Barrier In Vivo” (PLoS ONE, 2015).
# Like-named read-outs stand apart in the source and are kept apart here. Ends that are not written are not given here.
# Experiments:
# brain [1] = details: cited from earlier work; for Kin: rat, in vivo
# brain [2] = details: cited from earlier work
# brain [3] = details: mouse, in vivo; cited from earlier work
# [4] = system: blood-brain barrier (BBB); assay: Multiple time regression (MTR) analysis, blood-to-brain influx; assay type: in vivo, ICR-CD-1 mice
# Protocol: Shortly, 200 μl of the radioiodinated CPP solution (30000 cpm/μl) was injected into the right jugular externalis vein of anesthetized ICR-CD-1 mice, which were then decapitated at 1, 3, 5, 10, 12.5 and 15 min post injection, with first and last time points performed in duplicate, after which brains were collected and measured for radioactivity using a gamma counter (Wallac Wizard 1470, Perkin Elmer). Shortly before decapitation, blood was collected from the left carotid artery, which was centrifuged (10000 g, 15 min at 21°C) in order to measure the radioactivity of blood and serum. Dermorphin and radioiodinated BSA were used as positive and negative control, respectively. The blood-to-brain entry during the experimental period of 15 min was evaluated by plotting the ratio of brain (Am(T)) and serum activity (Cp(T)), corrected for the brain weight and serum volume, respectively, versus the exposure time (Θ), expressing the theoretical steady state serum level of the iodinated peptide at a given serum concentration [37, 73]. The exposure time is calculated as the integral of the arterial serum radioactivity over time divided by the radioactivity at time t. The integral is calculated through the trapezoidal rule of the log-transformed data [73]. In the linear part of the curve, assuming a two-compartmental BBB model, data can be fitted using a linear model from which the unidirectional influx rate (Kin), also referred to as unidirectional blood to brain clearance K1 [46], and the initial brain distribution volume (Vi) can be determined using the following equation according to Gjedde and Patlak [37–40]: Am(T)/Cp(T)=Abrain(T)/Aserum(T)=Kin⋅Θ+Vi with Θ = ∫0TCp(t) ⋅ dt/Cp(T) (1)
# [5] = system: blood-brain barrier (BBB); assay: Regional variation in brain influx (MTR, dissected brain regions)
# Protocol: The protocol of the multiple time regression (MTR) analysis to evaluate whether the peptides cross the BBB is described in detail elsewhere. […] Dermorphin and radioiodinated BSA were used as positive and negative control, respectively. […] The exposure time is calculated as the integral of the arterial serum radioactivity over time divided by the radioactivity at time t. The integral is calculated through the trapezoidal rule of the log-transformed data. In the linear part of the curve, assuming a two-compartmental BBB model, data can be fitted using a linear model from which the unidirectional influx rate (Kin), also referred to as unidirectional blood to brain clearance K1 [46], and the initial brain distribution volume (Vi) can be determined using the following equation according to Gjedde and Patlak: Am(T)/Cp(T)=Abrain(T)/Aserum(T)=Kin⋅Θ+Vi with Θ = ∫0TCp(t) ⋅ dt/Cp(T) (1)
# Different dissected brain regions were weighed and measured in the gamma counter. The unidirectional influx and initial distribution volume of the iodinated peptides for the different brain regions are determined using Eq 1.
# Generally, regression lines were computed using the least squares method. Regression lines of the ratio of the brain-to-serum radioactivity versus the exposure time obtained during the evaluation of the regional brain distribution and the used brain influx mechanism, were statistically compared using the Prism 6 software (GraphPad, La Jolla, USA).
# [6] = 15 min post IV injection of radiolabeled peptide, % injected dose, n = 2, ICR-CD-1 mice; described in words
# [7] = system: brain parenchyma and capillaries; assay: Capillary depletion method: brain parenchyma/capillary distribution; assay type: in vivo, ICR-CD-1 mice; details: mouse, in vivo, iv
# Protocol: The capillary depletion method was used to evaluate the distribution of the peptide between the brain parenchyma and capillaries. In summary (see Materials and Methods in [45]), 200 μl of a radiolabeled peptide solution (10000 cpm/μl) was injected in the jugular externalis vein of two anesthetized ICR-CD-1 mice. Ten minutes after IV injection, mice were decapitated and brains were collected and measured for radioactivity. […] The resulting homogenate was weighed and centrifuged at 5400 g for 30 min at 4°C, resulting in a pellet, i.e. capillaries, and supernatant, i.e. parenchyma and fat tissue, which were weighed and measured in the gamma counter. […] Compartmental distribution was calculated as follows: Fractioncapillaries or parenchyma (%)=[…] or parenchyma/[…]×100 (4)
# [8] = system: blood-brain barrier (BBB); assay: Saturability of brain influx: MTR with and without excess unlabeled peptide; design: species or system ICR-CD-1 mice; details: mouse, in vivo, iv
# Protocol: This dose of 20 μg was determined based on the amount of peptide injected during a MTR experiment estimated based on the specific activity and taking into account the amount of non-radioactively iodinated peptide present in the injected dose. […] During this experiment, peptides are radiolabeled using a no-carrier added method in order that only radioactively labeled peptide was injected.
# [9] = system: blood-brain barrier (BBB); assay: Classification of peptides according to their BBB influx
# Source text: This peptide is derived from the murine vascular endothelial (VE)-cadherin, located in the adherens junctions between the vascular endothelial cells, and constitutes the 13 cytosolic amino acids closest to the membrane and five amino acids from the C-terminus of the transmembrane region (615–632).
# [10] = system: blood-brain barrier (BBB); assay: Brain-to-blood transport (efflux) after intracerebroventricular injection; details: mouse; for t1/2,brain (half-time disappearance): in vivo
# Protocol: Female, ICR-CD-1 mice (Harlan Laboratories, Venray, The Netherlands), aged 7 to 10 weeks and weighing 28–36 g, were used during the in vivo BBB transport experiments. All animal experiments were performed in accordance with the Ethical Committee principles of laboratory animal welfare. The protocol was approved by the Ethical Committee of the Faculty of Veterinary Science of Ghent University (Permit Numbers: 2009–052 and 2014–128). Prior to experiments, mice were anesthetized by intraperitoneal injection of a 40% urethane solution (3 g/kg) (Sigma-Aldrich, Diegem, Belgium).
# For evaluation of the efflux of the peptides out of the brain, 1 μl of a radioiodinated peptide solution (25000 cpm/μl) was injected in the lateral ventricle of anesthetized ICR-CD-1 mice at a speed of 360 μl/h for 10 s using a syringe pump (KDS100, KR analytical, Cheshire, UK). […] The brain half-time disappearance (t1/2,brain) was calculated from the linear regression of the natural logarithm of the residual radioactivity in brain versus time as follows: t1/2,brain=ln(2)/kout (5) with kout defined as the efflux rate constant calculated as the absolute value of the slope of the linear regression, applying first order kinetics. An extensive description of the protocol can be found elsewhere.
# cellular uptake = system: cellular uptake; design: method as in Stalmans et al.[1]; details: cell-penetrating (CP-) response, quantitative expression of cellular influx; ref Stalmans et al.[1]; cited from earlier work
# BBB = details: after i.p. injection, fluorimetry; ref [41] of S1 Table; cited from earlier work
# Source text: page 6: Supplementary Information S1 Table.
# [11] = activity of the 68Ga-DOTA labeled peptide; ref [49]; cited from earlier work
# Source text: For pVEC and Tat 47–57, a very high liver concentration was observed compared to the other tissues, which can indicate metabolization, but also uptake of the peptides and their metabolites in hepatocytes.
# [12] = 125I-radioiodinated, IV, ICR-CD-1 mice, MTR 1-15 min, ± 65% confidence limits
molecule,measurement,setting,value
CC1(C)S[C@@H]2[C@H](NC(=O)Cc3ccccc3)C(=O)N2[C@H]1C(=O)O [Benzylpenicillin],Kin,brain [1],0.15 µL/s/g
COc1cccc2c1C(=O)c1c(O)c3c(c(O)c1C2=O)C[C@@](O)(C(=O)CO)C[C@@H]3O[C@H]1C[C@H](N)[C@H](O)[C@H](C)O1 [Doxorubicin],Kin,brain [1],0.25 µL/s/g
same,Vd,"brain [2]; mouse, in vivo",< 100 µL/g
CN1CC[C@]23c4c5ccc(O)c4O[C@H]2[C@@H](O[C@@H]2O[C@H](C(=O)O)[C@@H](O)[C@H](O)[C@H]2O)C=C[C@H]3[C@H]1C5 [Morphine-6-glucuronide],Kin,"brain [2]; in situ brain perfusion in mice, ref [6] of S1 Table",0.024 µL/s/g
CC(C)c1nc(CN(C)C(=O)N[C@H](C(=O)N[C@@H](Cc2ccccc2)C[C@H](O)[C@H](Cc2ccccc2)NC(=O)OCc2cncs2)C(C)C)cs1 [Ritonavir],Brain drug level,brain [3],0.1 µg/g
Dalargin,Vd,"brain [1]; in situ brain perfusion (single time) in rats, ref [2] of S1 Table",16.7 µL/g
Dermorphin [reference compound],"Kin (unidirectional influx rate), linear Gjedde-Patlak model","[4]; 125I-radioiodinated peptide, IV jugular vein 200 μl (30000 cpm/μl), anesthetized female ICR-CD-1 mice, 1-15 min, brain/serum radioactivity (gamma counter) vs exposure time, whole brain, ± 65% confidence limits, pVEC, SynB3, TP10: two experiments fitted together",0.63 ± 0.10 µL/g/min
same,"Vi (initial brain distribution volume), linear Gjedde-Patlak model","[4]; 125I-radioiodinated, IV, ICR-CD-1 mice, MTR 1-15 min, whole brain, ± 65% confidence limits",13.98 ± 0.79 µL/g
same,"K1 (unidirectional clearance, slope of the initial phase), biphasic model",[4]; [12],2.54 ± 0.50 µL/g/min
same,"K (net clearance, slope of the plateau phase), biphasic model",[4]; [12],0.03 ± 0.06 µL/g/min
same,"Vg (tissue brain distribution volume), biphasic model",[4]; [12],13.72 ± 2.17 µL/g
same,Difference in brain influx rates between the eight dissected brain regions,"[5]; comparison of slopes (Kin), Prism 6, P threshold 0.05, ICR-CD-1 mice",no statistically significant difference
same,Relative tissue distribution,[6],high liver distributions
"LLIILRRRIRKQAHAHSK-NH2 [pVEC, cell-penetrating peptide derived from murine VE-cadherin (615–632); tested radioiodinated]",Parenchymal fraction,[7],80%
same,"Kin (unidirectional influx rate), linear Gjedde-Patlak model","[4]; mouse, in vivo, iv",6.02 ± 0.29 µL/g/min
same,Maximal ratio of brain-to-serum radioactivity,"[4]; mouse, in vivo, iv",about 180 μl/g
same,Vi with excess dose of unlabeled peptide,[8],1 µL/g
same,BBB influx class,[9],class 5
same,Difference in brain influx rates between the eight dissected brain regions,"[5]; mouse, in vivo",significantly differed
same,"Kin, cerebellum","[5]; mouse, in vivo, iv","5.61 [5.12, 6.10] μl/(g × min)"
same,"Kin, frontal cortex","[5]; mouse, in vivo, iv","4.84 [4.66, 5.02] μl/(g × min)"
same,"Kin, hippocampus","[5]; mouse, in vivo, iv","3.94 [3.51, 4.37] μl/(g × min)"
same,"Kin, midbrain","[5]; mouse, in vivo, iv","5.32 [5.17, 5.46] μl/(g × min)"
same,"Kin, occipital and parietal cortex","[5]; mouse, in vivo, iv","5.03 [4.73, 5.32] μl/(g × min)"
same,"Kin, pons medulla","[5]; mouse, in vivo, iv","4.51 [3.87, 5.15] μl/(g × min)"
same,"Kin, striatum","[5]; mouse, in vivo, iv","4.07 [3.77, 4.37] μl/(g × min)"
same,"Kin, thalamus and hypothalamus","[5]; mouse, in vivo, iv","4.12 [3.86, 4.38] μl/(g × min)"
same,"Kin, whole brain","[5]; mouse, in vivo, iv","6.04 [5.78, 6.30] μl/(g × min)"
same,"Vi, cerebellum","[5]; mouse, in vivo, iv","21.02 [15.09, 26.95] μl/g"
same,"Vi, frontal cortex","[5]; mouse, in vivo, iv","12.93 [10.77, 15.09] μl/g"
same,"Vi, hippocampus","[5]; mouse, in vivo, iv","9.33 [4.13, 14.54] μl/g"
same,"Vi, midbrain","[5]; mouse, in vivo, iv","13.88 [12.15, 15.62] μl/g"
same,"Vi, occipital and parietal cortex","[5]; mouse, in vivo, iv","16.61 [13.02, 20.19] μl/g"
same,"Vi, pons medulla","[5]; mouse, in vivo, iv","36.06 [28.34, 43.78] μl/g"
same,"Vi, striatum","[5]; mouse, in vivo, iv","11.47 [7.81, 15.13] μl/g"
same,"Vi, thalamus and hypothalamus","[5]; mouse, in vivo, iv","17.72 [11.58, 17.86] μl/g"
same,"Vi, whole brain","[5]; mouse, in vivo, iv","24.37 [21.23, 27.51] μl/g"
same,kout (efflux transfer constant),[10],0.10 ± 0.11 min⁻¹
same,CP-response,cellular uptake,1.318
"RRLSYSRRRF-NH2 [SynB3, short cationic cell-penetrating peptide]",Parenchymal fraction,[7],77%
same,"K1 (unidirectional clearance, slope of the initial phase), biphasic model","[4]; mouse, in vivo, iv",29.84 ± 8.42 µL/g/min
same,"Kin (unidirectional influx rate), linear Gjedde-Patlak model","[4]; mouse, in vivo, iv",5.63 ± 1.83 µL/g/min
same,Maximal ratio of brain-to-serum radioactivity,"[4]; mouse, in vivo, iv",about 70 μl/g
same,BBB influx class,[9],class 5
same,Difference in brain influx rates between the eight dissected brain regions,"[5]; mouse, in vivo",no statistically significant difference
same,kout (efflux transfer constant),[10],0.05 ± 0.01 min⁻¹
same,"t1/2,brain (half-time disappearance)",[10],15 min
same,CP-response,cellular uptake,0.126
TP10,CP-response,cellular uptake,1.641
VIP: cargo peptide VIP alone,Brain uptake efficiency,BBB,0.78
"YGRKKRRQRRR-NH2 [Tat 47–57, short cationic cell-penetrating peptide]",Parenchymal fraction,[7],79%
same,"K1 (unidirectional clearance, slope of the initial phase), biphasic model",[4]; [12],13.50 ± 3.88 µL/g/min
same,"K (net clearance, slope of the plateau phase), biphasic model","[4]; mouse, in vivo, iv",0.27 ± 0.46 µL/g/min
same,"Kin (unidirectional influx rate), linear Gjedde-Patlak model","[4]; mouse, in vivo, iv",4.73 ± 1.23 µL/g/min
same,BBB influx class,[9],class 5
same,kout (efflux transfer constant),[10],0.21 ± 0.08 min⁻¹
same,"t1/2,brain (half-time disappearance)",[10],3 min
same,CP-response,cellular uptake,0.309
"^68Ga-DOTA labeled pVEC: 68Ga-DOTA labeled pVEC of a literature study (TLLIILRRRIRKQAHAHS; also: 68Ga-DOTA label (site not given here); UniProt P55284 615-632, looked up, fragment)",(human) serum half-life,[11],a few hours
